Test results from US7173053B2, “N-formyl hydroxylamine derivatives as inhibitors of bacterial polypeptide formylase for treating microbial infections” (British Biotech Pharmaceuticals Limited, priority 2000, dated 2007).
Converted amounts (≈) assume the structure as drawn.

Assays:
[1] = tested on: S. aureus ATCC 29213; experiment: agar plate dilution MIC, S. aureus ATCC 29213; format: cell-based; conditions: Staphylococcus aureus, ATCC29213, Iso-Sensitest agar pH 7.2, 18 to 24 hr incubation
Protocol: (§1) The susceptibilities of two strains of bacteria to the compounds of Example 1–4 were determined by a standard agar plate dilution method following recommendations in British Society for Antimicrobial Chemotherapy Working Party. 1991, “A guide to sensitivity testing British Society for Antimicrobial Chemotherapy, London, United Kingdom”. Briefly, Iso-Sensitest agar (pH 7.2: Oxoid, United Kingdom) is employed, supplemented with 5% horse blood (Oxoid) and 20 μg of NAD (Sigma) per ml are added to support growth of fastidious bacteria. The inoculum used is approximately 10^4 colony forming units of each isolate contained in a volume of 1 μl. Plates are incubated 18 to 24 hr in air, or for fasidious bacteria an atmosphere enriched with 4–6% carbon dioxide at 35° C. The MIC is determined as the lowest concentration of an antimicrobial tested that inhibited growth of the inoculum, disregarding a single persisting colony or faint haze caused by the inoculation.

[2] = tested on: S. pneumoniae ATCC 49619; experiment: agar plate dilution MIC, S. pneumoniae ATCC 49619; format: cell-based; conditions: Streptococcus pneumoniae, ATCC49619, Iso-Sensitest agar pH 7.2, 18 to 24 hr incubation
Protocol: as §1

| MIC [1] [µg/mL] | MIC [2] [µg/mL] | SMILES |
| --- | --- | --- |
| 4 (≈ 9.56 µM) | 2 (≈ 4.78 µM) | CC(C)(C)[C@H](NC(=O)[C@H](CC1CCCC1)CN(O)C=O)c1nc2cc(F)ccc2[nH]1 [Example 1, 2R-Cyclopentylmethyl-N-[1S-(5-fluoro-1H-benzoimidazol-2-yl)-2,2-dimethyl-propyl]-3-(formyl-hydroxy-amino)-propionamide] |
| 8 (≈ 18.4 µM) | 2 (≈ 4.6 µM) | CC(C)(C)[C@H](NC(=O)[C@H](CC1CCCC1)CN(O)C=O)c1nc2cc(Cl)ccc2[nH]1 [Example 2, N-[1-(5-Chloro-1H-benzoimidazol-2-yl)-2,2-dimethyl-propyl]-2-cyclopentylmethyl-3-(formyl-hydroxy-amino)-propionamide] |
| 8 (≈ 20 µM) | 2 (≈ 4.99 µM) | CC(C)(C)[C@H](NC(=O)[C@H](CC1CCCC1)CN(O)C=O)c1nc2ccccc2[nH]1 [Example 3, N-[1-(1H-Benzoimidazol-2-yl)-2,2-dimethyl-propyl]-2-cyclopentylmethyl-3-(formyl-hydroxy-amino)-propionamide] |
| 8 (≈ 21.4 µM) | 4 (≈ 10.7 µM) | CCCC[C@H](CN(O)C=O)C(=O)N[C@H](c1nc2ccccc2[nH]1)C(C)(C)C [Example 4, 2-[(Formyl-hydroxy-amino)-methyl]-hexanoic acid [1-(1H-benzoimidazol-2-yl)-2,2-dimethyl-propyl]-amide] |
